Measured values taken from patent publication US20240238380A1, “COMPOSITION FOR COMBINATION THERAPY COMPRISING GROWTH DIFFERENTIATION FACTOR-15 VARIANT AND GLUCAGON-LIKE PEPTIDE-1 RECEPTOR AGONIST” (YUHAN CORPORATION, priority 2021, published 2024).

Legend:
[1] = Inhibitory effect on gastric emptying (acetaminophen exposure) in normal rats (Example 8); format: in vivo; details: for AUClast of acetaminophen (μg · min/mL), 3 hr / AUClast of acetaminophen (μg · min/mL), 24 hr / AUClast of acetaminophen (μg · min/mL), 72 hr: rats; for AUClast of acetaminophen (μg · min/mL), 3 hr: acetaminophen 3 hr after dose; for AUClast of acetaminophen (μg · min/mL), 24 hr: acetaminophen 24 hr after dose; for AUClast of acetaminophen (μg · min/mL), 72 hr: acetaminophen 72 hr after dose
Protocol: Therefore, this example was performed to investigate the inhibitory effect on gastric emptying when the novel long-acting GDF15 fusion protein was administered at the doses equal to the effective dose, higher than the maximum effective dose, or in combination with a GLP-1 receptor agonist to rats. 6-week-old male SD rats (Orient Bio, Republic of Korea) were purchased from Hallym Lab. Animal Inc., Republic of Korea. Animals were acclimated for 7 days. On the day of drug administration, the rats were grouped based on the average body weight of individual rats (n=5 per group) and fasted for at least 6 hours before oral administration of acetaminophen. Then, 0.1, 1, and 10 nmol/kg of FM9-6+Fc_hole, 10 nmol/kg of semaglutide (long-acting GLP-1 derivative, SEQ ID NO: 114), and combination of FM9-6+Fc_hole and semaglutide (1+10 nmol/kg) were subcutaneously administered. The semaglutide was Ozempic® (semaglutide) from Novo NorDisk. As a negative control drug, D-PBS (normal vehicle) was subcutaneously administered, and as a positive control drug, 30 mg/kg of loperamide was orally administered 45 minutes before acetaminophen administration. On 3, 24 and 72 hours after a single dose of the test articles, acetaminophen was orally administered at 100 mg/kg to rats, and blood samples were collected before and at 30, 60, 90, 120 and 150 minutes after acetaminophen administration. The plasma concentration of acetaminophen was analyzed, and the pharmacokinetic profiles and the systemic exposures of acetaminophen were compared to evaluate the inhibitory effect on gastric emptying among the groups.

[2] = target: T1, GFRAL/RET/SRE-luc-overexpressing HEK293 cell line (Homo sapiens, UniProt Q6UXV0); test: Functional activity of long-acting GDF15 fusion protein (Bright-Glo luciferase assay); format: cell-based; details: relative to FM9-6+Fc_hole (Emax 100%)
T1 construct: expressed in transfected cells; host or cells: HEK293 (human embryonic kidney 293), overexpressing GFRAL, RET and an SRE-luciferase reporter
Protocol: Two variants (FM9+Fc_hole, FM11+Fc_hole) were compared and evaluated for GDF15 activity depending on the linker type and length. The GDF15 activity was measured using a Bright-Glo™ luciferase assay kit (Promega) and a GFRAL/RET/SRE-luc-overexpressing HEK293 cell line (Human embryonic kidney 293).
Specifically, 1×10^5 GFRAL/RET/SRE-luc-overexpressing HEK293 cells were dispended in DMEM containing 10% FBS in each well of a 96-well-plate, followed by culture at 37° C. and 5% CO2 for 24 hours. After 24 hours, each medium of the 96-well plate was replaced with 50 μl of a serum-free medium, followed by culture at 37° C. and 5% CO2 for 4 hours.
In addition, the long-acting GDF15 fusion protein produced in Example 1 was prepared by 3-fold serial dilution from a concentration of 2000 nM using a serum-free medium. Thereafter, 50 μl of the long-acting GDF15 fusion protein dilution was added to each well containing 50 μl of the replaced serum-free medium and the GERAL/RET/SRE-luc cell line so that the actual concentration thereof was serially diluted 3-fold from 1000 nM, followed by reaction at 37° C. and 5% CO2 for 4 hours. After 4 hours, each well was treated with 100 μl of a Bright-Glo™ solution prepared by adding a Bright-Glo™ buffer to a Bright-Glo™ substrate, followed by reaction at room temperature for 1 minute.
Thereafter, the reaction value (relative light units, RLU) was measured using a microplate reader (Perkin Elmer, Wallac Victor X5) capable of measuring luminescence. The results thereof are shown in Table 2 below and in FIGS. 1 and 2. Here, the functional activity of the long-acting GDF15 fusion protein depending on the GDF15 sequence, linker type, and length was compared based on the in-vitro GDF15 activity of FM9-6+Fc_hole (Emax 100%).

T1 sequence (Q6UXV0 19-394, species assumed): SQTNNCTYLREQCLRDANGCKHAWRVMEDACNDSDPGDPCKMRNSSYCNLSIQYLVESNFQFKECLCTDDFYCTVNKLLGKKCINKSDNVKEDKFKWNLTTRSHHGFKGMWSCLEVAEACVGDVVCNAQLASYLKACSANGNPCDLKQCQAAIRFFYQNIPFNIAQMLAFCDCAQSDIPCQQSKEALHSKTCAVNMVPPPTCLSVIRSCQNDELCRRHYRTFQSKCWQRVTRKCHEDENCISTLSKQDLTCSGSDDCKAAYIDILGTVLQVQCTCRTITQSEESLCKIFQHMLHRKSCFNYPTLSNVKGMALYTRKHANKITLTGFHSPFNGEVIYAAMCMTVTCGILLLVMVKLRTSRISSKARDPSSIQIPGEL
T1 sequence (P07949 29-1114 partner, species assumed): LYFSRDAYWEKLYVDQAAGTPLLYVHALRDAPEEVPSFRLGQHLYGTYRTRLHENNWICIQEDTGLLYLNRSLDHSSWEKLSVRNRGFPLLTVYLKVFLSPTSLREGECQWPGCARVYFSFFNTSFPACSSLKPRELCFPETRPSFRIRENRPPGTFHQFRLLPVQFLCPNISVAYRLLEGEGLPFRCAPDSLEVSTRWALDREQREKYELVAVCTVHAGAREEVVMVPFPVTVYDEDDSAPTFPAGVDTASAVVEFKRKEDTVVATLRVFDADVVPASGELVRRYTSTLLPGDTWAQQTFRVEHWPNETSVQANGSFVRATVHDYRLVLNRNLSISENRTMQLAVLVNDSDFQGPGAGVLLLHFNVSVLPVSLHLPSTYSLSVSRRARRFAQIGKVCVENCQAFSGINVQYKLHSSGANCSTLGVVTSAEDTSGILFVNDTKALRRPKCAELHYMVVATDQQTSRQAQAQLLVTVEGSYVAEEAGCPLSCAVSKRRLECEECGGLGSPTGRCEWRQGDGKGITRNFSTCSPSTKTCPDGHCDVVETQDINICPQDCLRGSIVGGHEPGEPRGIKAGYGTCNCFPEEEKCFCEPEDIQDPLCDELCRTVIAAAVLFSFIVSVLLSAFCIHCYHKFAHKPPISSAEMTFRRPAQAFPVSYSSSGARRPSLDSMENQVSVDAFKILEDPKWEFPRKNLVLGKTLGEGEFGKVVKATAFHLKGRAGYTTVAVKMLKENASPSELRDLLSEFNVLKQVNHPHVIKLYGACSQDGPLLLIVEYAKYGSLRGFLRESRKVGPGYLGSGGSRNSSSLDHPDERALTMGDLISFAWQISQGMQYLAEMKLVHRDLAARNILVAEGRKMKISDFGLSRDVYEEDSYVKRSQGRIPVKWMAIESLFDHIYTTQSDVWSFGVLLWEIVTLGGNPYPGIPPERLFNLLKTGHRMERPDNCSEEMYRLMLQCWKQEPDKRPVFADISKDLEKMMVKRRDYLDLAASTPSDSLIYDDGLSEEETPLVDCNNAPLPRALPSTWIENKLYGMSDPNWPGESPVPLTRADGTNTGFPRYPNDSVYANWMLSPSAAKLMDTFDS

Emax (%) [2]: 100.0%
Substance: FM9-6 + Fc_hole: long-acting GDF15 fusion protein (dimer): GDF15 ΔN2, S64R, IgG1 Fc_knob/Fc_hole, linker GS(EAAAK)5; SEQ ID NOs: 103 and 47
AUClast of acetaminophen (μg · min/mL), 3 hr ([1]; 0.1 nmol/kg s.c. single dose): 1873.02 µg·min/mL | AUClast of acetaminophen (μg · min/mL), 24 hr ([1]; 0.1 nmol/kg s.c. single dose): 2652.42 µg·min/mL | AUClast of acetaminophen (μg · min/mL), 72 hr ([1]; 0.1 nmol/kg s.c. single dose): 3054.78 µg·min/mL | AUClast of acetaminophen (μg · min/mL), 3 hr ([1]; 1 nmol/kg s.c. single dose): 2615.40 µg·min/mL | AUClast of acetaminophen (μg · min/mL), 24 hr ([1]; 1 nmol/kg s.c. single dose): 1878.30 µg·min/mL | AUClast of acetaminophen (μg · min/mL), 72 hr ([1]; 1 nmol/kg s.c. single dose): 3526.86 µg·min/mL | AUClast of acetaminophen (μg · min/mL), 3 hr ([1]; 10 nmol/kg s.c. single dose): 1497.84 µg·min/mL | AUClast of acetaminophen (μg · min/mL), 24 hr ([1]; 10 nmol/kg s.c. single dose): 2385.36 µg·min/mL | AUClast of acetaminophen (μg · min/mL), 72 hr ([1]; 10 nmol/kg s.c. single dose): 3100.59 µg·min/mL | gastric emptying (in words) ([1]; rats, 0.1, 1, and 10 nmol/kg, 3, 24, and 72 hours after administration): did not affect gastric emptying
